{"source": "patent US20150201661A1", "about": "“BAMBOO EXTRACTS, COMPOSITIONS AND USES THEREOF” (priority 2014, published 2015)", "assay_type_in_all_cases": "in vivo, Pseudosciaena crocea", "key": {"[1]": {"test": "Body weight and fat content of large yellow croaker", "settings": "5 months, feed with GBE 3.0 g/kg or astaxanthin 1.0 g/kg", "excerpt": "(§1) Yellow croaker fish (Pseudosciaena crocea) are an important marine economic fish in China. One thousand and eight hundred of large yellow croakers with the average weight of 150.06±11.35 g, were randomly selected into three groups (each group represented by three replicates of 200 large yellow croakers each). The GBE group and astaxanthin group were feed with complete formula puffed pellet feed rich in 3.0 g/kg of GBE and 1.0 g/kg of astaxanthin, respectively. Astaxanthin is an accepted dietary additive, but is quite expensive. The reference group was feed with chilled miscellaneous fish and shrimp. The breeding time was five months. Feeding was stopped 24 h after the test. Eight test large yellow croakers were randomly selected from each replicate group (that is, 24 test large yellow croakers each group). The selected fish were weighed, the livers were segmented, and the abdominal and back muscles examined after they were killed. Adequate amount of fresh back and abdominal muscle were used for sensory evaluation, the rest were sub-packaged and stored on −20° C. refrigerator for further use. The fat content of liver and fish and the superoxide dismutase (SOD) activity, catalase (CAT) activity, malondialdehyde (MDA) content, leptin content, adiponectin content of liver were detected."}, "[2]": {"tested_on": "malondialdehyde (MDA)", "test": "MDA content (lipid peroxidation) in liver of large yellow croaker", "settings": "5 months, feed with GBE 3.0 g/kg or astaxanthin 1.0 g/kg", "excerpt": "as §1"}, "[3]": {"tested_on": "back muscle tissue", "test": "Transmission electron microscopy of back muscle of large yellow croakers", "settings": "FIG. 4", "excerpt": "as §1"}, "[4]": {"tested_on": "adiponectin", "test": "Adiponectin level in the liver of large yellow croaker", "settings": "5 months, feed with GBE 3.0 g/kg or astaxanthin 1.0 g/kg", "excerpt": "as §1"}, "[5]": {"tested_on": "superoxide dismutase (SOD)", "test": "SOD activity in liver of large yellow croaker", "settings": "5 months, feed with GBE 3.0 g/kg or astaxanthin 1.0 g/kg", "excerpt": "as §1"}, "[6]": {"tested_on": "catalase (CAT)", "test": "CAT activity in liver of large yellow croaker", "settings": "5 months, feed with GBE 3.0 g/kg or astaxanthin 1.0 g/kg", "excerpt": "as §1"}, "[7]": {"tested_on": "leptin", "test": "Leptin level in the liver of large yellow croaker", "settings": "5 months, feed with GBE 3.0 g/kg or astaxanthin 1.0 g/kg", "excerpt": "as §1"}}, "note": "Marks after values point to notes of the source that are not given here."}
{"smiles": "CC1=C(/C=C/C(C)=C/C=C/C(C)=C/C=C/C=C(C)/C=C/C=C(C)/C=C/C2=C(C)C(=O)[C@@H](O)CC2(C)C)C(C)(C)C[C@H](O)C1=O", "note": "[ASTA, astaxanthin]", "values": [{"measurement": "overall body weight vs reference group", "setting": "[1]; FIG. 3", "result": "no significant differences"}, {"measurement": "fat content of liver vs reference group", "setting": "[1]; p<0.05", "result": "significantly lower"}, {"measurement": "fat content of muscle vs reference group", "setting": "[1]; p<0.05", "result": "significantly lower"}, {"measurement": "MDA level in the liver", "setting": "[2]", "result": "118 ± 9.33", "unit": "nmol/mg prot"}, {"measurement": "clearance of muscle bundle, order of groups", "setting": "[3]; TEM 10000 times", "result": "reference group<GBE group<astaxanthin group"}, {"measurement": "quantity of mitochondria, order of groups", "setting": "[3]; TEM 12000 times", "result": "reference group<GBE group<astaxanthin group"}, {"measurement": "ADIPONECTIN level in the liver", "setting": "[4]", "result": "2.57 ± 0.33^c ug/mL"}, {"measurement": "SOD activity in the liver", "setting": "[5]", "result": "157.35 ± 10.24^a U/mg prot"}, {"measurement": "CAT activity in the liver", "setting": "[6]", "result": "22.56 ± 3.11^a U/mg prot"}, {"measurement": "CAT/SOD ratio in the liver", "setting": "[6]", "result": "0.13 ± 0.01^a"}, {"measurement": "LEPTIN level in the liver", "setting": "[7]", "result": "1.08 ± 0.12^b ng/mL"}]}
